Test results: the supplement of paper PMC10307832

Experiments:
Assay in all cases: relative viability (nuclei count vs DMSO), 5 days (fraction); higher = more cells survive
Vemurafenib = compound: CCCS(=O)(=O)Nc1ccc(F)c(C(=O)c2c[nH]c3ncc(-c4ccc(Cl)cc4)cc23)c1F [Vemurafenib]
In short: (§1)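 Acceptance criteria were a control CV below 25% and at least one doubling per plate. Lung cancer cell lines in 1536-well plates got five library-drug doses (not always all listed) √10 apart by pinning and were left 5 days with no medium change. Viability divides treated-well nuclei by vehicle-well nuclei and is the median across plates. Nuclei were counted by MetaXpress from 4× Hoechst images.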

Alpelisib = compound: Cc1nc(NC(=O)N2CCC[C@H]2C(N)=O)sc1-c1ccnc(C(C)(C)C(F)(F)F)c1 [Alpelisib]
In short: as §1

OSI-027 = compound: COc1cccc2cc(-c3nc([C@H]4CC[C@H](C(=O)O)CC4)n4ncnc(N)c34)[nH]c12 [OSI-027]
In short: as §1

Vemurafenib + Lapatinib = compound: CCCS(=O)(=O)Nc1ccc(F)c(C(=O)c2c[nH]c3ncc(-c4ccc(Cl)cc4)cc23)c1F [Vemurafenib] + CS(=O)(=O)CCNCc1ccc(-c2ccc3ncnc(Nc4ccc(OCc5cccc(F)c5)c(Cl)c4)c3c2)o1 [Lapatinib] (partner 2 µM)
In short: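 Relative viability was taken as the ratio of nuclei in treated wells to nuclei in vehicle wells. Lung cancer cell lines in 1536-well plates received compounds by pin tool one day after seeding, either one drug alone or a fixed anchor-drug dose plus five library-drug doses (not always all listed) in √10 steps. Nuclei were counted on 4× images after 5 days of treatment, and values are medians of duplicate plates.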

Cell Line: NCI-H1793
- relative viability (Vemurafenib; 0.03162 µM): 0.836
- relative viability (Vemurafenib; 0.3162 µM): 0.775
- relative viability (Vemurafenib; 1 µM): 0.867
- relative viability (Alpelisib; 0.04 µM): 0.851
- relative viability (Alpelisib; 0.1265 µM): 0.89
- relative viability (Alpelisib; 0.4 µM): 0.919
- relative viability (Alpelisib; 1.265 µM): 0.731
- relative viability (Alpelisib; 2 µM, anchor plate): 0.792
- relative viability (Alpelisib; 4 µM): 0.626
- relative viability (OSI-027; 0.01 µM): 0.902
- relative viability (OSI-027; 0.03162 µM): 0.976
- relative viability (OSI-027; 0.1 µM): 0.781
- relative viability (OSI-027; 0.3162 µM): 0.579
- relative viability (OSI-027; 0.5 µM, anchor plate): 0.284
- relative viability (OSI-027; 1 µM): 0.295
- relative viability (Vemurafenib + Lapatinib; first compound 0.03162 µM): 0.442
- relative viability (Vemurafenib + Lapatinib; first compound 0.3162 µM): 0.645
- relative viability (Vemurafenib + Lapatinib; first compound 1 µM): 0.872

Cell Line: NCI-H2405
- relative viability (Vemurafenib; 0.03162 µM): 0.945
- relative viability (Vemurafenib; 0.1 µM): 0.955
- relative viability (Vemurafenib; 1 µM): 0.98
- relative viability (Alpelisib; 0.04 µM): 1.02
- relative viability (Alpelisib; 0.1265 µM): 0.965
- relative viability (Alpelisib; 0.4 µM): 0.973
- relative viability (Alpelisib; 1.265 µM): 0.824
- relative viability (Alpelisib; 2 µM, anchor plate): 0.749
- relative viability (Alpelisib; 4 µM): 0.703
- relative viability (OSI-027; 0.01 µM): 0.981
- relative viability (OSI-027; 0.03162 µM): 0.981
- relative viability (OSI-027; 0.1 µM): 0.887
- relative viability (OSI-027; 0.3162 µM): 0.795
- relative viability (OSI-027; 0.5 µM, anchor plate): 0.646
- relative viability (OSI-027; 1 µM): 0.518
- relative viability (Vemurafenib + Lapatinib; first compound 0.03162 µM): 0.935
- relative viability (Vemurafenib + Lapatinib; first compound 0.1 µM): 0.986
- relative viability (Vemurafenib + Lapatinib; first compound 1 µM): 1.1

Cell Line: NCI-H727
- relative viability (Vemurafenib; 0.03162 µM): 1
- relative viability (Vemurafenib; 0.1 µM): 0.802
- relative viability (Vemurafenib; 0.3162 µM): 1.2
- relative viability (Vemurafenib; 1 µM): 0.908
- relative viability (Alpelisib; 0.04 µM): 0.904
- relative viability (Alpelisib; 0.1265 µM): 0.894
- relative viability (Alpelisib; 0.4 µM): 0.893
- relative viability (Alpelisib; 1.265 µM): 0.789
- relative viability (Alpelisib; 2 µM, anchor plate): 0.586
- relative viability (Alpelisib; 4 µM): 0.565
- relative viability (OSI-027; 0.01 µM): 0.849
- relative viability (OSI-027; 0.03162 µM): 0.884
- relative viability (OSI-027; 0.1 µM): 0.893
- relative viability (OSI-027; 0.3162 µM): 0.769
- relative viability (OSI-027; 0.5 µM, anchor plate): 0.624
- relative viability (OSI-027; 1 µM): 0.712
- relative viability (Vemurafenib + Lapatinib; first compound 0.03162 µM): 0.653
- relative viability (Vemurafenib + Lapatinib; first compound 0.1 µM): 0.772
- relative viability (Vemurafenib + Lapatinib; first compound 0.3162 µM): 1.16
- relative viability (Vemurafenib + Lapatinib; first compound 1 µM): 0.886

Cell Line: 201T
- relative viability (Vemurafenib; 0.03162 µM): 0.954
- relative viability (Vemurafenib; 0.1 µM): 0.951
- relative viability (Vemurafenib; 0.3162 µM): 0.971
- relative viability (Vemurafenib; 1 µM): 0.968
- relative viability (Alpelisib; 0.04 µM): 0.985
- relative viability (Alpelisib; 0.1265 µM): 0.974
- relative viability (Alpelisib; 0.4 µM): 0.994
- relative viability (Alpelisib; 1.265 µM): 0.873
- relative viability (Alpelisib; 2 µM, anchor plate): 1.01
- relative viability (Alpelisib; 4 µM): 0.816
- relative viability (OSI-027; 0.01 µM): 0.98
- relative viability (OSI-027; 0.03162 µM): 0.999
- relative viability (OSI-027; 0.1 µM): 0.972
- relative viability (OSI-027; 0.3162 µM): 0.968
- relative viability (OSI-027; 0.5 µM, anchor plate): 0.757
- relative viability (OSI-027; 1 µM): 0.733
- relative viability (Vemurafenib + Lapatinib; first compound 0.03162 µM): 0.965
- relative viability (Vemurafenib + Lapatinib; first compound 0.1 µM): 1.02
- relative viability (Vemurafenib + Lapatinib; first compound 0.3162 µM): 1.02
- relative viability (Vemurafenib + Lapatinib; first compound 1 µM): 1.04

Cell Line: H3255
- relative viability (Vemurafenib; 0.03162 µM): 0.918
- relative viability (Vemurafenib; 0.3162 µM): 1.01
- relative viability (Vemurafenib; 1 µM): 0.917
- relative viability (Alpelisib; 0.04 µM): 1.03
- relative viability (Alpelisib; 0.1265 µM): 0.936
- relative viability (Alpelisib; 0.4 µM): 1.09
- relative viability (Alpelisib; 1.265 µM): 0.755
- relative viability (Alpelisib; 2 µM, anchor plate): 0.698
- relative viability (Alpelisib; 4 µM): 0.743
- relative viability (OSI-027; 0.01 µM): 0.98
- relative viability (OSI-027; 0.03162 µM): 1.11
- relative viability (OSI-027; 0.1 µM): 0.893
- relative viability (OSI-027; 0.3162 µM): 0.874
- relative viability (OSI-027; 0.5 µM, anchor plate): 0.629
- relative viability (OSI-027; 1 µM): 0.638
- relative viability (Vemurafenib + Lapatinib; first compound 0.03162 µM): 0.254
- relative viability (Vemurafenib + Lapatinib; first compound 0.3162 µM): 0.283
- relative viability (Vemurafenib + Lapatinib; first compound 1 µM): 0.28

Cell Line: NCI-H1395
- relative viability (Vemurafenib; 0.03162 µM): 0.755
- relative viability (Vemurafenib; 0.1 µM): 0.951
- relative viability (Vemurafenib; 1 µM): 0.949
- relative viability (Alpelisib; 0.04 µM): 0.97
- relative viability (Alpelisib; 0.1265 µM): 0.758
- relative viability (Alpelisib; 0.4 µM): 1
- relative viability (Alpelisib; 1.265 µM): 0.73
- relative viability (Alpelisib; 2 µM, anchor plate): 1.14
- relative viability (Alpelisib; 4 µM): 0.785
- relative viability (OSI-027; 0.01 µM): 0.914
- relative viability (OSI-027; 0.03162 µM): 0.898
- relative viability (OSI-027; 0.1 µM): 0.814
- relative viability (OSI-027; 0.3162 µM): 0.795
- relative viability (OSI-027; 0.5 µM, anchor plate): 0.69
- relative viability (OSI-027; 1 µM): 0.7
- relative viability (Vemurafenib + Lapatinib; first compound 0.03162 µM): 0.891
- relative viability (Vemurafenib + Lapatinib; first compound 0.1 µM): 0.95
- relative viability (Vemurafenib + Lapatinib; first compound 1 µM): 1.19

Cell Line: NCI-H1355
- relative viability (Vemurafenib; 0.03162 µM): 0.933
- relative viability (Vemurafenib; 0.1 µM): 0.908
- relative viability (Vemurafenib; 0.3162 µM): 0.925
- relative viability (Vemurafenib; 1 µM): 0.96
- relative viability (Alpelisib; 0.04 µM): 0.944
- relative viability (Alpelisib; 0.1265 µM): 0.96
- relative viability (Alpelisib; 0.4 µM): 1
- relative viability (Alpelisib; 1.265 µM): 0.876
- relative viability (Alpelisib; 2 µM, anchor plate): 0.855
- relative viability (Alpelisib; 4 µM): 0.867
- relative viability (OSI-027; 0.01 µM): 0.985
- relative viability (OSI-027; 0.03162 µM): 0.985
- relative viability (OSI-027; 0.1 µM): 0.898
- relative viability (OSI-027; 0.3162 µM): 0.823
- relative viability (OSI-027; 0.5 µM, anchor plate): 0.451
- relative viability (OSI-027; 1 µM): 0.444
- relative viability (Vemurafenib + Lapatinib; first compound 0.03162 µM): 0.962
- relative viability (Vemurafenib + Lapatinib; first compound 0.1 µM): 0.956
- relative viability (Vemurafenib + Lapatinib; first compound 0.3162 µM): 0.837
- relative viability (Vemurafenib + Lapatinib; first compound 1 µM): 1.08

Cell Line: IA-LM
- relative viability (Vemurafenib; 0.03162 µM): 0.837
- relative viability (Vemurafenib; 0.1 µM): 0.888
- relative viability (Vemurafenib; 0.3162 µM): 0.86
- relative viability (Vemurafenib; 1 µM): 0.851
- relative viability (Alpelisib; 0.04 µM): 0.979
- relative viability (Alpelisib; 0.1265 µM): 0.854
- relative viability (Alpelisib; 0.4 µM): 1.02
- relative viability (Alpelisib; 1.265 µM): 0.753
- relative viability (Alpelisib; 2 µM, anchor plate): 0.799
- relative viability (Alpelisib; 4 µM): 0.717
- relative viability (OSI-027; 0.01 µM): 0.888
- relative viability (OSI-027; 0.03162 µM): 0.779
- relative viability (OSI-027; 0.1 µM): 0.671
- relative viability (OSI-027; 0.3162 µM): 0.293
- relative viability (OSI-027; 1 µM): 0.151
- relative viability (Vemurafenib + Lapatinib; first compound 0.03162 µM): 0.764
- relative viability (Vemurafenib + Lapatinib; first compound 0.1 µM): 0.715
- relative viability (Vemurafenib + Lapatinib; first compound 0.3162 µM): 0.684
- relative viability (Vemurafenib + Lapatinib; first compound 1 µM): 0.608
